Experimental data reported in publication PMC6620859, “Synthesis and Preclinical Evaluation of the Fibrin-Binding Cyclic Peptide ^18F-iCREKA: Comparison with Its Contrasted Linear Peptide” (Contrast Media & Molecular Imaging, 2019).
Where “and” joins values, the source holds several entries; their conditions need not be identical. Identical values can stand only once.

Key:
[1] = target: T1, fibrin clots (Homo sapiens, UniProt P02671+P02675+P02679); experiment: Fluorine-18-labeled peptide binding affinity to fibrin clots; settings: clots from 75 μL fibrinogen 2 mg/mL + 30 μL thrombin 2.5 U/mL; 100 μL tracer in PBS, 37°C, one hour, PBS washed three times, radioactive counter, four tubes, mean ± SD
T1 sequence (P02671 36-629 limits assumed): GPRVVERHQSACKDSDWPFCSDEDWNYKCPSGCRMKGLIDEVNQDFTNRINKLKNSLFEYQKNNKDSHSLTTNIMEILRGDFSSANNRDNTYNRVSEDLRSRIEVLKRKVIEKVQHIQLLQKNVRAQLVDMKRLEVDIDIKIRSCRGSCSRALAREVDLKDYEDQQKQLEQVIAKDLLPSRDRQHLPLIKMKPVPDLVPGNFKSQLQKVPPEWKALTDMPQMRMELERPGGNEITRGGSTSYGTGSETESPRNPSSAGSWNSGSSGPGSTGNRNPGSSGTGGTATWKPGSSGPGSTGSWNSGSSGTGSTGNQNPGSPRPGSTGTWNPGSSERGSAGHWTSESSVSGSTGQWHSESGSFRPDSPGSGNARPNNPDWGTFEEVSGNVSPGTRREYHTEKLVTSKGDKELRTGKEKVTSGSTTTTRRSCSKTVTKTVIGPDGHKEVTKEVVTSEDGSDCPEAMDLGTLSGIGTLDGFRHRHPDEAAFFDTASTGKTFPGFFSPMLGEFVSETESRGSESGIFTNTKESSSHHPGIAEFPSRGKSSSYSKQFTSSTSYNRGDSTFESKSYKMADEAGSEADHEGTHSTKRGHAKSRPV
T1 sequence (P02675 45-491 limits assumed): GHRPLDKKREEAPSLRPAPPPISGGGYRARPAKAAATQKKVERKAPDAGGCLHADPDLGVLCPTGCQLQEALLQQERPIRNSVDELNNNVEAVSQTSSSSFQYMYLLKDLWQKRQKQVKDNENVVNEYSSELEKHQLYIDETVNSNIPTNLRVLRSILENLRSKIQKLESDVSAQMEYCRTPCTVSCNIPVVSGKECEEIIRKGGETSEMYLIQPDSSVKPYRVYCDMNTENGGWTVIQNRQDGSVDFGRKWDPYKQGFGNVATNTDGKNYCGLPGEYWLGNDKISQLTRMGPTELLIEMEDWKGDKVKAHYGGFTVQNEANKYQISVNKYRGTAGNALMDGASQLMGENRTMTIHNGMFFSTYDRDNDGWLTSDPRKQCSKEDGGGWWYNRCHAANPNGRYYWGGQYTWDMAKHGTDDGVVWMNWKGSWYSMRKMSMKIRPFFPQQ
T1 sequence (P02679 27-437 isoform P02679-2 limits assumed): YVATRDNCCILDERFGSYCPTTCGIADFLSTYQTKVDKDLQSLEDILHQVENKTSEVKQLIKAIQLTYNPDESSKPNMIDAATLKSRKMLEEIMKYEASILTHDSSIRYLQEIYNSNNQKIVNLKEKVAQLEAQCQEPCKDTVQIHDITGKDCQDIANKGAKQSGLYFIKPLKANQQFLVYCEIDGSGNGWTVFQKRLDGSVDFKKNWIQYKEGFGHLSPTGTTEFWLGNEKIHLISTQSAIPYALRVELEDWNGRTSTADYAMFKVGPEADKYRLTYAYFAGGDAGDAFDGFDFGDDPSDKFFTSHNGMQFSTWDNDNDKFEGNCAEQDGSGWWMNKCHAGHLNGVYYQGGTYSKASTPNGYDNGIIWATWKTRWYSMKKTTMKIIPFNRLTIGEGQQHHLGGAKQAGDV
Experimental: As previously reported, to synthesize fibrin clots, 75 μL of fibrinogen solution (2 mg/mL) in 0.9% NaCl was added to four 1.5 mL EP tubes. 30 μL of a 2.5 U/mL thrombin solution in 0.9% NaCl was subsequently added to these tubes. The tubes were placed in the thermostatic oscillator at 37°C for four hours, and the gels representative of fibrin clots were formed in the tubes. 370 KBq (10 μCi) fluorine-18-labeled peptide was diluted in 1 ml PBS. 100 μL of the solution was added into each tube, respectively, and added into four empty tubes for reference. All tubes were incubated at 37°C for one hour. After that, the supernatant liquid was carefully pipetted. PBS was added and pipetted three times to remove any CREKA or peptides not bond to the fibrin clots. Finally, all tubes were measured by a CAPRAC®-R radioactive counter (Imaxeon) to obtain the bond-to-gross ratio.

[2] = test system: Caov3 cells; experiment: Cellular uptake test in Caov3 cells; type: cell-based, human; settings: radio medium mixed with activated MMP-2; compared with no activation
Experimental: (§1) U87MG cells and Caov3 cells were counted and uniformly inoculated into 24-well plates. The 24-well plates were marked, and cells were incubated for 24 hours in complete DMEM with 10% fetal bovine serum. Radio medium was prepared by adding 888 KBq (24 μCi) fluorine-18-labeled peptide into 15 mL DMEM without any serum. After incubation, the complete DMEM were poured and the radio medium were added in with 500 μL/well. The remainder medium were collected into 4 γ countertubes with 500 μL/tube to be representative of radioactivity gross. When the time arrived at 2, 5, 15, 30, 60, and 120 min, the radio medium were carefully pipetted out and the wells were carefully rinsed by 1 mL of PBS for 3 times. 4 wells were divided into a group corresponding to one time point. After the rinsing, SDS-NaOH solutions were added into the wells to dissociate the cells. The solutions were collected into γ countertubes to measure the radioactivity. The binding affinity was reflected by the radioactivity percentage, which was recorded as ID%, of the wells and the gross. The final results were recorded as the time-radioactivity curve including the six time points.
(§2) Fluorine-18 labeled peptides binding affinities after activation were also measured by this protocol while the radio-medium were mixed with activated MMP-2 (Abcam).

[3] = type: physicochemical
Experimental: The water partition coefficient was reflected by the logP value of the fluorine-18-labeled peptides. 500 μL of octanol and 500 μL of pure water were added into an EP tube. 185 KBq (5 μCi) of fluorine-18-labeled peptides were added into the solution and well mixed. After centrifugating for 5 min at a speed of 1000 r/min, 300 μL of supernatant liquid and 300 μL of lower liquid were carefully pipetted into two γ countertubes, respectively. The logarithm of the radioactivity ratio of octanol to water was the logP value. The test was repeated four times for each fluorine-18-labeled peptide.

[4] = test system: U87MG cells; experiment: Cellular uptake test in U87MG cells; type: cell-based, human; settings: for cellular uptake to U87MG cells after activation by MMP-2: radio medium mixed with activated MMP-2, compared with no activation; for cellular uptake percentage (ID%), peak / maximum, U87MG cells: without MMP-2 activation, serum-free DMEM, 500 μL/well, 2-120 min, PBS rinsed 3 times, γ counting, 4 wells per time point
Experimental: as §1, §2

[5] = mouse, in vivo
Experimental: A nude with U87MG xenograft was injected with a dose of approximately 11.1 MBq (0.3 mCi) of ^18F-labeled peptides via the tail vein. The mouse was euthanized at 30 min after injection, the tumor was carefully excised, and the blood was collected. The tumor was cut into pieces and made into homogenates by mixing 200 μL normal saline. The mixture was centrifuged for 10 min at a speed of 12000 r/min. The supernatant liquid was carefully pipetted and transferred into an Amicon® Ultracentrifugal filter device for further centrifugation. The filtrate was injected into an HPLC column to analyze the in vivo stability of fluorine-18-labeled peptide.

[6] = test system: U87MG xenograft; settings: mouse, in vivo
Experimental: Animal procedures were performed according to the guideline of the Animal Ethics Committee of the Southern Medical University. Approximately 10 × 10^6 U87MG cells and Caov3 cells were suspended in PBS and subcutaneously implanted in the right armpit of female BALB/c nude mice. Tumors were allowed to grow to a size of 0.5–1.5 cm in diameter.
Small-animal PET/CTs were performed at the PET center of Southern Medical University Nanfang Hospital using a PET/CT scanner (Simens Inveon Micro-PET/CT). Tumor-bearing mice (n = 3/group) were intravenously injected with 5.55 MBq of ^18F-NOTA-LP or ^18F-NOTA-iCREKA under isoflurane anesthesia. A ten-minute static PET scan for each animal was acquired at 30, 60, and 120 min after the injection. 120 min dynamic scans were also obtained for ^18F-NOTA-LP and ^18F-NOTA-iCREKA (n = 2/group). The 3-dimensional ordered subset expectation maximization (3D-OSEM) algorithm was used for the PET reconstruction, and CT was applied for attenuation correction. Inveon Research Workplace (IRW) 3.0 software (Siemens, Germany) was used to measure the regions of interest (ROIs). The radioactivity concentrations were computed automatically, and the results were reflected by the unit of percent injected dose per gram (%ID/g). The maximum %ID/g of the ROIs was used for statistical analyses. Tumor-to-muscle (T/M) uptake ratios were calculated by dividing the radioactivity uptake in the tumor by the contralateral shoulder muscle.

fibrin-binding percentage (bond-to-gross ratio) [1]	logP value [3]	area under the time-radioactivity curve representative of defluorination, blood [5] [%]	area under the time-radioactivity curve representative of defluorination, tumor [5] [%]	kidney uptake [6]	liver uptake [6]	tumor-to-muscle (T/M) ratio on micro-PET [6]	maximum T/M ratio on dynamic micro-PET [6]	Substance	cellular uptake to Caov3 cells after activation by MMP-2 [2]	cellular uptake to U87MG cells after activation by MMP-2 [4]	cellular uptake percentage (ID%), peak / maximum, U87MG cells [4]
69.31% ± 6.82	−2.47 ± 0.05	–	–	–	–	–	–	NOTA-CREKA [^18F-NOTA-CREKA, Al^18F-labeled NOTA conjunct of the pentapeptide CREKA]	nearly no radioactivity	still no radioactivity	–
67.92 ± 6.71%	−2.51 ± 0.01	27.78	23.28	about 27 %ID/g	about 4 %ID/g	6.48 ± 0.50	–	CREKAPLGLAGRKKRRQRRRCK (NOTA) (Cys&Cys bridge) (disulfide) [^18F-NOTA-iCREKA]	obviously increased	increased	23.90% and 16.05%
67.09 ± 6.20%	−2.57 ± 0.02	–	–	–	–	2.08 ± 0.50	2.69 ± 0.35	CREKAPLGLAGRKKRRQRRRCK (NOTA) [^18F-NOTA-LP, Al^18F-labeled NOTA conjunct of the contrasted linear peptide LP]	slightly higher	increased	16.05% and 23.90%
